Measurements published in patent US11485751B2, “Apramycin derivatives” (WAYNE STATE UNIVERSITY, priority 2017, dated 2022).
≈ marks a conversion by molar mass, not a printed value. Like-named read-outs stand apart in the source and are kept apart here.

Assays:
[1] = test system: clinical isolates carrying APH(3′)-III; assay: MIC broth microdilution, APH(3′)-III; format: cell-based; conditions: IMM Univ. Zurich
Source text: (§1) Minimal inhibitory concentrations (MIC) have been determined by broth microdilution assays (CLSI. Methods for Dilution Antimicrobial Susceptibility Tests for Bacteria That Grow Aerobically; Approved Standard—Tenth Edition. CLSI document M07-A10. Wayne, Pa.: Clinical and Laboratory Standards Institute; 2015.).
(§2) Minimal inhibitory concentrations (MICs, […]) against clinical isolates from Institute of Medical Microbiology, Univ. Zurich, and the IC50 values for bacterial, human mitochondrial and human cytosolic ribosomes are indicated.

bacterial ribosomes = assay: in-vitro translation assay, bacterial ribosomes; format: biochemical
Outline: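 Inhibitory potency was determined as IC50 in in-vitro translation systems based on bacterial ribosomes, human chimeric (mitochondrial-type) ribosomes or rabbit reticulocyte (cytosolic) ribosomes.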

[2] = test system: clinical isolates carrying APH(3′)-II; assay: MIC broth microdilution, APH(3′)-II; format: cell-based; conditions: read-out: MIC APH(3′)-II
Source text: as §1, §2

[3] = test system: clinical isolates carrying AAC(3)-IV; assay: MIC broth microdilution, AAC(3)-IV; format: cell-based; conditions: for MIC: clinical isolates, IMM Univ. Zurich, AAC(3)-IV, read-out: MIC AAC(3)-IV
Outline: (§3)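 MICs obtained by broth microdilution following CLSI M07-A10, tested against clinical isolates from the Institute of Medical Microbiology, Univ. Zurich; values in μg/ml.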

[4] = test system: clinical isolates carrying APH(3′)-I; assay: MIC broth microdilution, APH(3′)-I; format: cell-based; conditions: IMM Univ. Zurich
Source text: as §1, §2

[5] = test system: human cytosolic ribosomes; assay: in-vitro translation assay, human cytosolic ribosomes; format: biochemical
Outline: (§4)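 Each ribosome preparation (bacterial, human chimeric as the mitochondrial model, rabbit reticulocyte as the cytosolic model) drives in-vitro translation with the test compound present. Inhibition of translation gives the IC50.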

[6] = test system: human mitochondrial ribosomes; assay: in-vitro translation assay, human mitochondrial (human chimeric) ribosomes; format: biochemical
Outline: as §4

[7] = test system: clinical isolates carrying APH(3′)-VI; assay: MIC broth microdilution, APH(3′)-VI; format: cell-based; conditions: IMM Univ. Zurich
Source text: as §1, §2

WT clinical isolates = assay: MIC broth microdilution, WT; format: cell-based; conditions: read-out: MIC WT, clinical isolates, IMM Univ. Zurich; wild type
Outline: as §3

AG038 MRSA = assay: Antibacterial activity, clinical isolate AG038; format: cell-based; design: unit not given here
Outline: (§5)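 Reported as MIC; method was a CLSI-conforming microdilution in broth.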

[8] = test system: SZ380, Mycobacterium smegmatis; assay: MIC reference strain SZ380; format: cell-based; conditions: Mycolicibacterium smegmatis, reference strain; read-out: MIC SZ380 M. smegmatis
Outline: (§6)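 CLSI-conform broth microdilution testing gives the minimal concentration preventing visible growth of these reference strains.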

[9] = test system: Engineered E. coli pH424 armA; assay: Activity against G1405-methylated 16S-rRNA, E. coli pH424 armA; format: cell-based
Outline: (§7)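 Read-out is the minimal inhibitory concentration, obtained in broth microdilution run according to CLSI guidelines (M07-A10).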

[10] = test system: Engineered E. coli pH430 WT; assay: Activity, engineered E. coli pH430 WT; format: cell-based; conditions: wild type
Outline: as §7

[11] = test system: Enterob. AG302 AAC(3)-II AAC(6′)-I rmtC; assay: Activity against G1405-methylated 16S-rRNA, clinical isolate AG302; format: cell-based
Outline: as §7

[12] = test system: E. coli AG153 AAC(3)-II APH(3′)-II rmtB; assay: Activity against G1405-methylated 16S-rRNA, clinical isolate AG153; format: cell-based
Outline: as §7

[13] = test system: AG225, Acinetobacter baumannii pittii; assay: MIC reference strain AG225; format: cell-based; conditions: Acinetobacter baumannii, reference strain; read-out: MIC AG225 A. baumannii
Outline: as §6

[14] = test system: AG215, Klebsiella pneumonia; assay: MIC reference strain AG215; format: cell-based; conditions: Klebsiella pneumoniae, reference strain; read-out: MIC AG215 K. pneumonia
Outline: as §6

ATCC19977 M. abcessus = assay: MIC reference strain ATCC19977; format: cell-based; conditions: read-out: MIC ATCC19977 M. abcessus
Outline: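 Values are minimal inhibitory concentrations, obtained by serial dilution of compound in broth according to CLSI guidance for aerobes.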

[15] = test system: AG290, Enterobacter cloacae; assay: MIC reference strain AG290; format: cell-based; conditions: Enterobacter cloacae; reference strain; read-out: MIC AG290 E. cloacae
Outline: as §6

[16] = test system: K. pneum. AG269 AAC(3)-II AAC(6′)-I rmtB; assay: Activity against G1405-methylated 16S-rRNA, clinical isolate AG269; format: cell-based
Outline: as §7

[17] = test system: AG220, Pseudomonas aeruginosa ATCC27853; assay: MIC reference strain AG220; format: cell-based; conditions: Pseudomonas aeruginosa, ATCC27853, reference strain ATCC27853; read-out: MIC AG220 P. aeruginosa
Outline: as §6

AG001 E. coli WT = assay: Antibacterial activity, clinical isolate AG001; format: cell-based; design: unit not given here
Outline: as §5

AG031 P. aer. APH(3′)-II = assay: Antibacterial activity, clinical isolate AG031; format: cell-based; design: unit not given here
Outline: as §5

[18] = test system: A baum. AG227 APH(3′)-I armA; assay: Activity against G1405-methylated 16S-rRNA, clinical isolate AG227; format: cell-based
Outline: as §7

[19] = test system: AG212, Escherichia coli ATCC25922; assay: MIC reference strain AG212; format: cell-based; conditions: Escherichia coli; reference strain ATCC25922; read-out: MIC AG212 E. coli
Outline: as §6

[20] = test system: AG039 MRSA AAC(6′)-I ANT(4′)-I; assay: Antibacterial activity, clinical isolate AG039; format: cell-based
Outline: as §5

AG032 P. aer. APH(3′)-II = assay: Antibacterial activity, clinical isolate AG032; format: cell-based; design: unit not given here
Outline: as §5

AG173 E. coli AAC(3)-IV = assay: Antibacterial activity, clinical isolate AG173; format: cell-based
Outline: as §5

[21] = test system: AG042 MRSA AAC(6′)-I ANT(4′)-I APH(2′); assay: Antibacterial activity, clinical isolate AG042; format: cell-based; design: unit not given here
Outline: as §5

[22] = test system: AG033 P. aer. APH(3′)-II AAC(6′)-I; assay: Antibacterial activity, clinical isolate AG033; format: cell-based; design: unit not given here
Outline: as §5

[23] = test system: Engineered E. coli AG103 armA; assay: Activity against G1405-methylated 16S-rRNA, E. coli AG103 armA; format: cell-based
Outline: as §7

AG055 E. coli WT = assay: Antibacterial activity, clinical isolate AG055; format: cell-based; design: unit not given here
Outline: as §5

AG003 E. coli AAC(3)-II = assay: Antibacterial activity, clinical isolate AG003; format: cell-based
Outline: as §5

[24] = test system: Engineered E. coli pH427 rmtF; assay: Activity against G1405-methylated 16S-rRNA, E. coli pH427 rmtF; format: cell-based
Outline: as §7

AG163 E. coli APH(3′)-I = assay: Antibacterial activity, clinical isolate AG163; format: cell-based
Source text: as §1
Table 4 and 5 show the antibacterial activity of the compounds of the invention against bacterial reference strains (table 4) and against representative clinical isolates (table 5).

[25] = test system: Engineered E. coli pH426 rmtC; assay: Activity against G1405-methylated 16S-rRNA, E. coli pH426 rmtC; format: cell-based
Outline: as §7

[26] = test system: Engineered E. coli pH425 rmtB; assay: Activity against G1405-methylated 16S-rRNA, E. coli pH425 rmtB; format: cell-based
Outline: as §7

[27] = clinical isolates, IMM Univ. Zurich, APH(3′)-II

| SMILES | MIC [1] [µg/mL] | IC50 (bacterial ribosomes) [µM] | MIC [3] [µg/mL] | MIC [4] [µg/mL] | IC50 [5] [µM] | IC50 [6] [µM] | MIC [7] [µg/mL] | MIC (WT clinical isolates) [µg/mL] | Antibacterial activity AG038 MRSA (AG038 MRSA) | MIC [8] [µg/mL] | Activity E. coli pH424 armA [9] | Activity E. coli pH430 WT [10] | MIC [13] [µg/mL] | MIC [14] [µg/mL] | MIC [2, 27] [µg/mL] | MIC [15] [µg/mL] | MIC [17] [µg/mL] | Antibacterial activity AG001 E. coli WT (AG001 E. coli WT) | Antibacterial activity AG031 P. aer. APH(3′)-II (AG031 P. aer. APH(3′)-II) | MIC [19] [µg/mL] | also measured |
| --- | --- | --- | --- | --- | --- | --- | --- | --- | --- | --- | --- | --- | --- | --- | --- | --- | --- | --- | --- | --- | --- |
| NC[C@@H]1O[C@H](O[C@H]2[C@@H](O)[C@H](O[C@@H]3[C@@H](O)[C@H](N)C[C@H](N)[C@H]3O[C@H]3O[C@H](CO)[C@@H](O)[C@H](O)[C@H]3N)O[C@@H]2CO)[C@H](N)[C@@H](O)[C@@H]1O [paromomycin, reference compound] | > 128 | 0.02 | 128 (≈ 208 µM) | > 128 | 19 | 86 | > 128 | 1 to 2 (≈ 1.62 to 3.25 µM) | – | – | – | – | – | – | – | – | – | – | – | – | MIC [2]: > 128 µg/mL |
| CNC1C(O)C2O[C@H](O[C@@H]3C(N)C[C@@H](N)C(O)[C@H]3OC3O[C@H](CN)[C@@H](O)[C@H]3O)C(N)C[C@@H]2O[C@@H]1O[C@H]1OC(CO)[C@@H](N)[C@H](O)C1O (some centres unmarked) [DC201] | 1 (≈ 1.49 µM) | 0.12 | 16 (≈ 23.9 µM) | 2 to 4 (≈ 2.98 to 5.96 µM) | 81 | 113 | 4 (≈ 5.96 µM) | 8 (≈ 11.9 µM) | 2-4 | 0.25 | 2 | 8 | 4 to 8 | 2 | 4 (≈ 5.96 µM) | 2 | 4 to 8 | 4 | 16 | 4 | Activity Enterob. AG302 AAC(3)-II AAC(6′)-I rmtC [11]: 4; Activity E. coli AG153 AAC(3)-II APH(3′)-II rmtB [12]: 8; MIC (ATCC19977 M. abcessus): 1 to 2 µg/mL (≈ 1.49 to 2.98 µM); Activity K. pneum. AG269 AAC(3)-II AAC(6′)-I rmtB [16]: 4; Activity A baum. AG227 APH(3′)-I armA [18]: 8-16 |
| CNC1C(OC2OC(CO)C(N)C(O)C2O)OC2CC(N)C(OC3C(N)CC(N)C(O)C3OC3OC(CO)C(O)C3O)OC2C1O [DC131, 5-O—(β-D-Ribefuranosyl) apramycin] | – | 0.11 | > 32 | 64 (≈ 95.3 µM) | 319 | 295 | 4 (≈ 5.96 µM) | – | 64 | – | 2 | 4 | 16 | 2 | 8 (≈ 11.9 µM) | 4 | 64 | 16 | 64-128 | 8 | Antibacterial activity AG039 MRSA AAC(6′)-I ANT(4′)-I [20]: 64; Antibacterial activity AG032 P. aer. APH(3′)-II (AG032 P. aer. APH(3′)-II): 64-128; Antibacterial activity AG173 E. coli AAC(3)-IV (AG173 E. coli AAC(3)-IV): 16-32; Antibacterial activity AG042 MRSA AAC(6′)-I ANT(4′)-I APH(2′) [21]: 64; Antibacterial activity AG033 P. aer. APH(3′)-II AAC(6′)-I [22]: 128; Activity E. coli AG103 armA [23]: 1; Antibacterial activity AG055 E. coli WT (AG055 E. coli WT): 16-32; Antibacterial activity AG003 E. coli AAC(3)-II (AG003 E. coli AAC(3)-II): 16; MIC (ATCC19977 M. abcessus): 16 µg/mL (≈ 23.8 µM); Activity E. coli pH427 rmtF [24]: 4; Antibacterial activity AG163 E. coli APH(3′)-I (AG163 E. coli APH(3′)-I): 8-16; Activity E. coli pH426 rmtC [25]: 4; Activity E. coli pH425 rmtB [26]: 4; activity against the IMM clinical isolates carrying the gene for AAC(3)-IV [3]: no activity |
| CNC1C(O)C2O[C@H](O[C@@H]3C(N)C[C@@H](N)C(O)[C@H]3O[C@@H]3O[C@H](CNCCN)[C@@H](O)[C@H]3O)C(N)C[C@@H]2O[C@@H]1O[C@H]1OC(CO)[C@@H](N)[C@H](O)C1O (some centres unmarked) [DC214] | 1 (≈ 1.4 µM) | 0.09 | 8 to 16 (≈ 11.2 to 22.4 µM) | 2 (≈ 2.8 µM) | 85 | 178 | 4 (≈ 5.6 µM) | – | 4 | 0.25 | 2 | 4 | 8 | 1 | 4 (≈ 5.6 µM) | 1 to 2 | 8 | 2 | 8-16 | 2 | Antibacterial activity AG173 E. coli AAC(3)-IV (AG173 E. coli AAC(3)-IV): 16; Activity Enterob. AG302 AAC(3)-II AAC(6′)-I rmtC [11]: 1-2; Activity E. coli AG153 AAC(3)-II APH(3′)-II rmtB [12]: 2; Activity K. pneum. AG269 AAC(3)-II AAC(6′)-I rmtB [16]: 2; Activity A baum. AG227 APH(3′)-I armA [18]: 4-8 |
